# “And” between values parts separate entries of the source, which are not always exact repeats. Equal values may be shown once.
# Columns and labels:
# human dermal fibroblasts [1] = experiment: Exposure to Cd(II), fibroblast survival; format: cell-based
# human dermal fibroblasts [2] = experiment: Exposure to As(III) (sodium arsenite), fibroblast survival; format: cell-based; conditions: 9 mM sodium arsenite, 24 hours, no EDA
# Protocol: Deschampsia antarctica extract (EDA): In experiments with fibroblasts, lyophilized EDA batch 051214 was used. The product was dissolved in a complete DMEM medium at a concentration of 5 mg/ml, stirred in a magnetic stirrer for 30 minutes and filtered through a 0.2 μm sterile cellulose acetate filter (Minisart, Sartorius).
# As(III): sodium arsenite (NaAsO2) at a final concentration of 9 mM was dissolved in phenol red-free DMEM medium and filtered through a 0.2 μm sterile cellulose acetate filter (Minisart, Sartorius).
# The cells used were human dermal fibroblasts isolated from the outer area of the retroauricular flap obtained from different healthy voluntary donors and preserved in liquid N2. The experiments used cells grown in culture flasks containing DMEM supplemented with 2 mM glutamine, […], 10% fetal bovine serum, in a Heraeus oven with an atmosphere of 7% CO2 and 93% humidified air at 37° C., until reaching about 90% of confluence, after which a new pass was performed by means of trypsinization. […]
# The plates were washed twice with Hank's. […] It was carefully stirred in a plate stirrer and the absorbance at 550 nm was read in a BMG Fluostar Optima spectrophotometer.
smiles,measurement,setting,value
"[Cl][Cd][Cl] [Cd, cadmium chloride]",Survival %,"human dermal fibroblasts [1]; 3 μM Cd, 24 hours, no EDA",54.9%
same,Survival x,"human dermal fibroblasts [1]; 3 μM Cd, 24 hours, no EDA",0.188 u abs
same,mortality,human dermal fibroblasts [1]; Cd(II) at 3 μM (FIG. 7),about 50%
O=[As]O [sodium arsenite],Survival % (vs CC),human dermal fibroblasts [2],42.0% and 54.6% and 46.4%
same,Survival x,human dermal fibroblasts [2],0.209 u abs and 0.206 u abs and 0.334 u abs

# — patent US20190328819A1 (priority 2016, published 2019)
